The values that follow come from publication PMC6332235, “Phosphonylated Acyclic Guanosine Analogues with the 1,2,3-Triazole Linker” (Molecules, 2015).

In one data set the test system is thymidine phosphorylase. Set-up: method as in PMID 22372816. Particulars: cited from earlier work.
Data set [1] deals with murine leukemia L1210 cells. Nature of the data set: Cytostatic activity: inhibition of proliferation of murine leukemia L1210 cells. Type of data set: cell-based. The note with it: Mus musculus, L1210, 48 h, read-out: IC50 (L1210). On the procedure:
(§1) The cytotoxicity of the tested compounds toward the uninfected host cells was defined as the minimum cytotoxic concentration (MCC) that causes a microscopically-detectable alteration of normal cell morphology. The 50% cytotoxic concentration (CC50), causing a 50% decrease in cell viability, was determined using a colorimetric 3-(4,5-dimethylthiazol-2-yl)-5-(3-carboxymethoxyphenyl)-2-(4-sulfophenyl)-2H-tetrazolium (MTS) assay system. The cytostatic activity of the tested compounds was defined as the 50% cytostatic inhibitory concentration (IC50), causing a 50% decrease in cell proliferation, and was determined against murine leukemia L1210, human T-lymphocyte CEM and human cervix carcinoma HeLa cells (Table 1).
(§2) All assays were performed in 96-well microtiter plates. To each well were added (5−7.5) × 10^4 tumor cells and a given amount of the test compound. The cells were allowed to proliferate for 48 h (murine leukemia L1210 cells) or 72 h (human lymphocytic CEM and human cervix carcinoma HeLa cells) at 37 °C in a humidified CO2-controlled atmosphere. At the end of the incubation period, the cells were counted in a Coulter counter. The IC50 (50% inhibitory concentration) was defined as the concentration of the compound that inhibited cell proliferation by 50%.

Data set [2] relates to human T-lymphocyte CEM cells. Nature of the data set: Cytostatic activity: inhibition of proliferation of human T-lymphocyte CEM cells. Type of data set: cell-based. The note with it: Homo sapiens, CCRF-CEM, 72 h, read-out: IC50 (CEM). On the procedure: as §1, §2
Data set [3] relates to human cervix carcinoma HeLa cells. As to the kind of experiment: Cytostatic activity: inhibition of proliferation of human cervix carcinoma HeLa cells. It is filed as cell-based. Particulars: Homo sapiens, HeLa, 72 h, read-out: IC50 (HeLa). The procedure: as §1, §2

As usually defined, the IC50 is the concentration that gives 50% inhibition. For orientation: melting point means the temperature of the solid-liquid transition.

Where only a bound is given, the exact number is not on record here.

Turning to `Nc1nc2c(ncn2Cc2cn(CCCCC(F)(F)P(=O)(O)O)nn2)c(=O)[nH]1` [Compound 13], the “Inhibitory activity against thymidine phosphorylase” value in the data set on thymidine phosphorylase is “inhibitory activity”.
As for `CCOP(=O)(OCC)C(O)Cn1cc(Cn2cnc3c(Cl)nc(N)nc32)nn1` (centres unmarked) [Compound 17e, Diethyl 2-{4-[(2-amino-6-chloro-9H-purin-9-yl)methyl]-1H-1,2,3-triazol-1-yl}-1-hydroxyethylphosphonate], the melting point lay in the range of 174 to 175 °C. The IC50 in data set [1] is over 250 µM. Also, the IC50 in data set [2] is over 250 µM. Besides, the half-maximal inhibitory concentration (IC50) in data set [3] was over 250 µM.
